These results are taken from ChEMBL document CHEMBL3758098, “3-(Dipropylamino)-5-hydroxybenzofuro[2,3-f]quinazolin-1(2H)-one (DPA-HBFQ-1) plays an inhibitory role on breast cancer cell growth and progression” (Eur J Med Chem, 2016).

Molecules are shown by their SMILES. The source made the active and inactive calls. The calls are words filed in the database; no cut-off is given here.

The subject of one data set is MCF7. Put plainly: Cytotoxicity against human MCF7 cells assessed as growth inhibition at 1 uM after 5 days by MTT assay relative to vehicle-treated control. The settings on record: MCF7, 120 h, read-out: GI. It is filed as functional.
The next data set has as its system MDA-MB-231. Put plainly: Cytotoxicity against human MDA-MB-231 cells assessed as growth inhibition at 1 uM after 5 days by MTT assay relative to vehicle-treated control. It is filed as functional. (In general: Tetrazolium dyes change colour on reduction, which living cells bring about.)
A short description of data set [1]: Cytotoxicity against human MCF10A cells assessed as growth inhibition at 1 uM after 5 days by MTT assay relative to vehicle-treated control. It is filed as cell-based. The settings on record: mcf-10a, 120 h.

Take `CCN(CC)c1nc2c(OC)cc3c4ccccc4oc3c2c(=O)[nH]1`: the inhibition of growth at 1 µM with MCF7 is 15%. Moreover, the “growth inhibition (GI)” value in the data set with MDA-MB-231 was “Active”. In addition, the Activity entry in data set [1] is reported as “Non-toxic”.

Turning to `CCCCN(CCCC)c1nc2c(OC)cc3c4ccccc4oc3c2c(=O)[nH]1`, the inhibition of growth at 1 µM with MCF7 came out at 25%. In addition, in the data set on MDA-MB-231, the “growth inhibition (GI)” value was “Active”. For the same compound, the Activity result in data set [1] was “Non-toxic”.
